Reference: ChEMBL document CHEMBL1201862, “PubChem BioAssay data set” (2004)
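Dose response: 5 concentrations. Exposure: 48 h. Format: 96-well plates. Endpoint: linear interpolation; highest concentration if not reached. GI50 is the concentration that inhibits growth by half.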 The source made the active and inactive calls. Rule as the data show it: active = GI50 up to about 1.1 µM and inactive = higher.

Columns and labels:
Experiment in all cases: NCI anticancer screen, dose series, 48 h
M14 = system: M14
U-251 = system: U-251
HCC 2998 = system: HCC 2998
RPMI-8226 = system: RPMI-8226
MCF7 = system: MCF7
SF-268 = system: SF-268
PC-3 = system: PC-3
TK-10 = system: TK-10
SK-MEL-2 = system: SK-MEL-2
A498 = system: A498
UACC-257 = system: UACC-257
ACHN = system: ACHN
Hs-578T = system: Hs-578T
MDA-MB-435 = system: MDA-MB-435
UACC-62 = system: UACC-62
SR = system: SR
OVCAR-8 = system: OVCAR-8
RXF 393 = system: RXF 393
HL-60 = system: HL-60
HOP-92 = system: HOP-92

| Compound | GI50 (M14) | GI50 (U-251) | GI50 (HCC 2998) | GI50 (RPMI-8226) | GI50 (MCF7) | GI50 (SF-268) | GI50 (PC-3) | GI50 (TK-10) | GI50 (SK-MEL-2) | GI50 (A498) | GI50 (UACC-257) | GI50 (ACHN) | GI50 (Hs-578T) | GI50 (MDA-MB-435) | GI50 (UACC-62) | GI50 (SR) | GI50 (OVCAR-8) | GI50 (RXF 393) | GI50 (HL-60) | GI50 (HOP-92) |
| --- | --- | --- | --- | --- | --- | --- | --- | --- | --- | --- | --- | --- | --- | --- | --- | --- | --- | --- | --- | --- |
| O=C(O)CC[P+](c1ccccc1)(c1ccccc1)c1ccccc1 | 23.1 µM (inactive) | 23.2 µM (inactive) | > 100 µM (inactive) | 3.21 µM (inactive) | 39 µM (inactive) | 31.3 µM (inactive) | 37.4 µM (inactive) | > 100 µM (inactive) | 21.6 µM (inactive) | 42.9 µM (inactive) | 23.2 µM (inactive) | > 100 µM (inactive) | 48.3 µM (inactive) | 26.5 µM (inactive) | 22.3 µM (inactive) | 50.4 µM (inactive) | 43.5 µM (inactive) | > 100 µM (inactive) | 11.5 µM (inactive) |  |
| Cc1cc2c(cc1Cl)S(=O)(=O)OC(c1ccc([N+](=O)[O-])cc1)=N2 | > 100 µM (inactive) | > 100 µM (inactive) | > 100 µM (inactive) | > 100 µM (inactive) | > 100 µM (inactive) | > 100 µM (inactive) | > 100 µM (inactive) | > 100 µM (inactive) |  | > 100 µM (inactive) | > 100 µM (inactive) | > 100 µM (inactive) | > 100 µM (inactive) | > 100 µM (inactive) | > 100 µM (inactive) | > 100 µM (inactive) | > 100 µM (inactive) | > 100 µM (inactive) | > 100 µM (inactive) | > 100 µM (inactive) |
| COc1cc([C@@H]2c3cc4c(cc3[C@@H](c3c(O)cc(O)c5c3O[C@H](c3ccc(O)c(O)c3)[C@H](OC(=O)c3cc(O)c(O)c(O)c3)C5)[C@H]3COC(=O)[C@H]23)OCO4)cc(OC)c1OC | 9.93 µM (inactive) | 6.12 µM (inactive) | 20.2 µM (inactive) | 5 µM (inactive) | 3.75 µM (inactive) | 5.79 µM (inactive) | 5.28 µM (inactive) | > 100 µM (inactive) | 11.7 µM (inactive) | 3.74 µM (inactive) | 43.1 µM (inactive) | 1.33 µM (inactive) | 4.07 µM (inactive) | 2.54 µM (inactive) | 4.73 µM (inactive) | 2.69 µM (inactive) | 7.1 µM (inactive) | 4.67 µM (inactive) |  | > 100 µM (inactive) |
| CCO[C@@H]1CCC([S+]([O-])c2ccc(C)cc2)=CO1 (some centres not stated) |  | > 100 µM (inactive) | > 100 µM (inactive) | > 100 µM (inactive) | > 100 µM (inactive) | > 100 µM (inactive) | > 100 µM (inactive) | > 100 µM (inactive) | > 100 µM (inactive) | > 100 µM (inactive) | > 100 µM (inactive) | > 100 µM (inactive) | > 100 µM (inactive) | > 100 µM (inactive) | > 100 µM (inactive) | 60.7 µM (inactive) | > 100 µM (inactive) | > 100 µM (inactive) | 69.7 µM (inactive) |  |
| Nc1c(Cl)ncnc1N[C@@H]1C[C@H]1CO | > 100 µM (inactive) | > 100 µM (inactive) | > 100 µM (inactive) |  | > 100 µM (inactive) | > 100 µM (inactive) | > 100 µM (inactive) | > 100 µM (inactive) | > 100 µM (inactive) | > 100 µM (inactive) | > 100 µM (inactive) | > 100 µM (inactive) | > 100 µM (inactive) | > 100 µM (inactive) | > 100 µM (inactive) | > 100 µM (inactive) | > 100 µM (inactive) | > 100 µM (inactive) | > 100 µM (inactive) | > 100 µM (inactive) |
| O=C(O)C12C3C4(C(=O)O)C1C1(C(=O)O)C2C3(C(=O)O)C41 (configuration not stated) | > 100 µM (inactive) | > 100 µM (inactive) | > 100 µM (inactive) | > 100 µM (inactive) | > 100 µM (inactive) | > 100 µM (inactive) | > 100 µM (inactive) | > 100 µM (inactive) | > 100 µM (inactive) | > 100 µM (inactive) | > 100 µM (inactive) | > 100 µM (inactive) | > 100 µM (inactive) | > 100 µM (inactive) | > 100 µM (inactive) | > 100 µM (inactive) | > 100 µM (inactive) |  | > 100 µM (inactive) | > 100 µM (inactive) |
| COc1ccc(OC)c(C2CCc3c(cnc4nc(N)nc(N)c34)C2)c1 (configuration not stated) | 1.3 µM (inactive) | 4.79 µM (inactive) | 12.3 µM (inactive) |  | 10.1 µM (inactive) | 4.21 µM (inactive) | 8.2 µM (inactive) | 10.9 µM (inactive) | 15.2 µM (inactive) | 12.3 µM (inactive) | 4.28 µM (inactive) | 3.91 µM (inactive) | 15.7 µM (inactive) | 2.56 µM (inactive) | 0.673 µM (active) | 3.86 µM (inactive) | 5.36 µM (inactive) | 15.8 µM (inactive) | 10.4 µM (inactive) | 13.2 µM (inactive) |
